We go through eleven molecules from ChEMBL document CHEMBL1201862, “PubChem BioAssay data set” (2004).

Among the test systems are ACHN; BT-549; CAKI-1; COLO 205; DU-145; EKVX; HCT-15; HOP-92; Hs-578T; LOX IMVI; MCF7; MOLT-4; NCI-H226; PC-3; SF-539; SK-MEL-5; SNB-19; SNB-75; UACC-62.
What all share (assay): growth of human tumour cells (NCI), 48 h

Molecules are shown by their SMILES.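 Test compounds were applied to cells in 96-well plates for 48 hours at 5 doses. GI50: concentration for 50% inhibition of growth.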 Active and inactive are the calls of the source. Cut-off read from the data, not from the text of the source: active = GI50 up to about 1.1 µM and inactive = higher.

For `Cc1cc(N)ccc1C=O`, the GI50 in the assay on ACHN, in the assay on BT-549, in the assay on CAKI-1, with COLO 205, in the assay with DU-145 and in the assay with EKVX was > 100 µM (inactive) throughout. Also, the GI50 with HCT-15 was greater than 100 µM; in the assay on HOP-92, > 100 µM (inactive); in the assay with Hs-578T, > 100 µM (inactive); in the assay with LOX IMVI it was > 100 µM (inactive); in the assay with MCF7 it was > 100 µM (inactive); in the assay on MOLT-4, > 100 µM (inactive). The GI50 in the assay with NCI-H226, with PC-3, in the assay with SF-539, in the assay with SK-MEL-5, with SNB-19 and in the assay with SNB-75 was > 100 µM (inactive) throughout. Further, the GI50 in the assay with UACC-62 is > 100 µM (inactive).

Regarding `CCOC(=O)c1nc2ccc(C(F)(F)F)cc2nc1Oc1cc(OC)cc(OC)c1`, the GI50 is > 100 µM (inactive) in the assay on ACHN; > 100 µM (inactive) with BT-549; > 100 µM (inactive) in the assay with COLO 205; 87.3 µM (inactive) in the assay with DU-145; > 100 µM (inactive) in the assay with EKVX; greater than 100 µM in the assay with HCT-15. The GI50 in the assay with HOP-92 was 40.1 µM (inactive); in the assay on Hs-578T, 17 µM (inactive); in the assay with LOX IMVI, > 100 µM (inactive); in the assay with MCF7, > 100 µM (inactive); in the assay on MOLT-4, > 100 µM (inactive); with NCI-H226, 67.8 µM (inactive). The GI50 in the assay on PC-3 was > 100 µM (inactive); with SF-539, 57.1 µM (inactive); with SK-MEL-5, 29 µM (inactive); in the assay on SNB-19 it was 68.9 µM (inactive); in the assay with SNB-75 it was 21.4 µM (inactive); in the assay on UACC-62, > 100 µM (inactive).

On to `O=C1/C(=C/c2ccccc2[N+](=O)[O-])N=C(c2ccccc2)N1c1nc2ccccc2s1`, for which the GI50 was 23.2 µM (inactive) in the assay on ACHN; 20 µM (inactive) in the assay with BT-549; 34.1 µM (inactive) with CAKI-1; 20.9 µM (inactive) in the assay on DU-145; 29 µM (inactive) in the assay with EKVX; 17.5 µM in the assay with HCT-15. In addition, the GI50 in the assay with HOP-92 is 21 µM (inactive); in the assay on Hs-578T it was 19.1 µM (inactive); in the assay with LOX IMVI it was 22 µM (inactive); in the assay with MCF7 it was 13 µM (inactive); in the assay with MOLT-4, 5.92 µM (inactive); in the assay with NCI-H226 it was 41.3 µM (inactive). Moreover, the GI50 was 31 µM (inactive) in the assay on PC-3; 30.1 µM (inactive) in the assay with SF-539; 25.2 µM (inactive) with SK-MEL-5; 42.6 µM (inactive) in the assay with SNB-19; 27.3 µM (inactive) in the assay on SNB-75.

Consider `COc1ccc(/C=C2\CN(C)CC3C2=NC(=S)NC3c2ccc(OC)cc2)cc1` (stereo unspecified), for which the GI50 with ACHN is 5.73 µM (inactive); in the assay on BT-549, 7.6 µM (inactive); in the assay on CAKI-1, 6.64 µM (inactive); with COLO 205, 3.67 µM (inactive); in the assay on DU-145, 4.68 µM (inactive); with EKVX, 11.5 µM (inactive). Further, the GI50 in the assay on HCT-15 was 3.46 µM; in the assay on HOP-92, 3.21 µM (inactive); in the assay on Hs-578T it was 52.7 µM (inactive); with LOX IMVI, 4.76 µM (inactive); in the assay with MCF7, 2.82 µM (inactive); with MOLT-4, 2.9 µM (inactive). For the same molecule, the GI50 with NCI-H226 is 41.5 µM (inactive); with PC-3, 6.21 µM (inactive); in the assay with SF-539, 7.11 µM (inactive); with SK-MEL-5, 4.24 µM (inactive); in the assay on SNB-19, 5.66 µM (inactive); with UACC-62, 4.58 µM (inactive).

Take `COc1ccc(OC)c2cc(Cc3ccc(N(C)C)cc3)c(=O)c(Cc3ccc(N(C)C)cc3)cc12`: the GI50 in the assay with ACHN is > 100 µM (inactive); in the assay with BT-549, > 100 µM (inactive); in the assay on CAKI-1 it was 61 µM (inactive); in the assay with COLO 205, > 100 µM (inactive); in the assay on DU-145, > 100 µM (inactive); with EKVX it was > 100 µM (inactive). Further, the GI50 in the assay on HCT-15 is greater than 100 µM; with HOP-92 it was > 100 µM (inactive); with Hs-578T, 25.5 µM (inactive); in the assay on MCF7, > 100 µM (inactive); in the assay on MOLT-4, > 100 µM (inactive); in the assay on NCI-H226, 47.3 µM (inactive). For the same molecule, the GI50 with PC-3 is 62.1 µM (inactive); with SF-539, 86.1 µM (inactive); in the assay on SK-MEL-5, 63.7 µM (inactive); with SNB-19, 75.5 µM (inactive); in the assay with SNB-75, 40.4 µM (inactive); with UACC-62 it was 59.4 µM (inactive).

Consider `CCN(CC)c1ccc2cc(C(=O)Nc3ccc(C)cc3)c(=N)oc2c1`, for which the GI50 with ACHN, in the assay on BT-549, with CAKI-1, with COLO 205, with DU-145 and in the assay on EKVX was > 100 µM (inactive) each time. For the same molecule, the GI50 is greater than 100 µM in the assay on HCT-15; > 100 µM (inactive) with HOP-92; > 100 µM (inactive) in the assay on Hs-578T; > 100 µM (inactive) in the assay on LOX IMVI; > 100 µM (inactive) with MCF7; > 100 µM (inactive) in the assay on MOLT-4. Further, the GI50 with NCI-H226, in the assay on PC-3, with SK-MEL-5, with SNB-19, in the assay on SNB-75 and in the assay on UACC-62 was > 100 µM (inactive) each time.

For the molecule `COc1ccc(N2CCOCC2)cc1`, the GI50 in the assay with ACHN, in the assay with BT-549, with CAKI-1, in the assay with COLO 205, in the assay with DU-145 and with EKVX was > 100 µM (inactive) throughout. The GI50 with HCT-15 is greater than 100 µM; with HOP-92 it was > 100 µM (inactive); in the assay on Hs-578T, > 100 µM (inactive); in the assay on MCF7 it was > 100 µM (inactive); in the assay on MOLT-4, > 100 µM (inactive); with NCI-H226, > 100 µM (inactive). Also, the GI50 with PC-3, in the assay with SF-539, in the assay with SK-MEL-5, with SNB-19, with SNB-75 and in the assay on UACC-62 was > 100 µM (inactive) in each case.

Take `COc1ccc(/C=N/NC(=O)c2ccccc2Nc2ccccc2C(=O)N/N=C/c2ccc(OC)c(OC)c2)cc1OC`: the GI50 in the assay with ACHN, with BT-549, with CAKI-1, with COLO 205, in the assay with DU-145 and in the assay with EKVX was > 100 µM (inactive) throughout. For the same molecule, the GI50 is greater than 100 µM with HCT-15; 71.9 µM (inactive) with HOP-92; > 100 µM (inactive) in the assay with Hs-578T; > 100 µM (inactive) with MCF7; > 100 µM (inactive) in the assay with MOLT-4; > 100 µM (inactive) with NCI-H226. In addition, the GI50 in the assay on PC-3, with SK-MEL-5, in the assay with SNB-19, in the assay on SNB-75 and with UACC-62 was > 100 µM (inactive) in each case.

Take `OC1CCCCCCCCCCC1[S+]1CCCC1.O[B-](F)(F)F` (stereo unspecified): the GI50 in the assay with ACHN is > 100 µM (inactive); with BT-549, > 100 µM (inactive); in the assay on CAKI-1 it was > 100 µM (inactive); in the assay on COLO 205 it was 62.7 µM (inactive); in the assay with DU-145, > 100 µM (inactive); in the assay with EKVX, > 100 µM (inactive). Besides, the GI50 in the assay on HCT-15 is greater than 100 µM; in the assay on HOP-92, 44.1 µM (inactive); in the assay on Hs-578T, > 100 µM (inactive); with LOX IMVI it was > 100 µM (inactive); in the assay with MCF7 it was > 100 µM (inactive); in the assay on MOLT-4, > 100 µM (inactive). Also, the GI50 in the assay with NCI-H226 is 50.9 µM (inactive); in the assay with PC-3, 56.8 µM (inactive); in the assay on SF-539, > 100 µM (inactive); with SK-MEL-5, 27.7 µM (inactive); with SNB-19, > 100 µM (inactive); with UACC-62, > 100 µM (inactive).

As for `Cc1cc(C)c2c(SCc3ccc(Cl)cc3Cl)nc(N)nc2n1`, the GI50 with ACHN was 57.5 µM (inactive); in the assay with BT-549, > 100 µM (inactive); in the assay on CAKI-1, > 100 µM (inactive); with COLO 205, 34.8 µM (inactive); in the assay on DU-145 it was > 100 µM (inactive); in the assay on EKVX, > 100 µM (inactive). Also, the GI50 in the assay with HCT-15 is greater than 100 µM; in the assay with HOP-92 it was 15.9 µM (inactive); with Hs-578T, 37.8 µM (inactive); with LOX IMVI, 28.9 µM (inactive); with MCF7, 31.6 µM (inactive); in the assay on NCI-H226 it was > 100 µM (inactive). The GI50 was 35.6 µM (inactive) in the assay with PC-3; > 100 µM (inactive) with SK-MEL-5; 58.9 µM (inactive) in the assay on SNB-19; 58.6 µM (inactive) with SNB-75; > 100 µM (inactive) with UACC-62.

For the molecule `CC(C)(C)N1C(=O)c2ccccc2C1(O)C(F)(F)F` (stereo unspecified), the GI50 in the assay with ACHN was > 100 µM (inactive); in the assay on BT-549, > 100 µM (inactive); with CAKI-1, > 100 µM (inactive); in the assay on COLO 205 it was > 100 µM (inactive); in the assay on DU-145, > 100 µM (inactive); with EKVX it was 64 µM (inactive). For the same molecule, the GI50 in the assay on HCT-15 was greater than 100 µM; in the assay with HOP-92, > 100 µM (inactive); in the assay on Hs-578T, 24 µM (inactive); with LOX IMVI it was > 100 µM (inactive); with MCF7, > 100 µM (inactive); with NCI-H226, > 100 µM (inactive). The GI50 in the assay with PC-3 is 60.1 µM (inactive); in the assay on SF-539, > 100 µM (inactive); in the assay with SK-MEL-5, > 100 µM (inactive); in the assay with SNB-19, > 100 µM (inactive); in the assay with SNB-75 it was 24.4 µM (inactive); with UACC-62, > 100 µM (inactive).
